What follows are molecules tested against T1, IDH2/R140Q (Homo sapiens, UniProt P48735, R140Q) (assay: Biochemical assay for IDH2 R140Q mutant enzyme (2HG by RapidFire MS)). Conditions: mean ± standard deviation of the mean; 90 minutes reaction.
T1 construct: His-tag (N); made in house; host or cells: E. coli
T1 sequence (P48735 40-452 R140Q): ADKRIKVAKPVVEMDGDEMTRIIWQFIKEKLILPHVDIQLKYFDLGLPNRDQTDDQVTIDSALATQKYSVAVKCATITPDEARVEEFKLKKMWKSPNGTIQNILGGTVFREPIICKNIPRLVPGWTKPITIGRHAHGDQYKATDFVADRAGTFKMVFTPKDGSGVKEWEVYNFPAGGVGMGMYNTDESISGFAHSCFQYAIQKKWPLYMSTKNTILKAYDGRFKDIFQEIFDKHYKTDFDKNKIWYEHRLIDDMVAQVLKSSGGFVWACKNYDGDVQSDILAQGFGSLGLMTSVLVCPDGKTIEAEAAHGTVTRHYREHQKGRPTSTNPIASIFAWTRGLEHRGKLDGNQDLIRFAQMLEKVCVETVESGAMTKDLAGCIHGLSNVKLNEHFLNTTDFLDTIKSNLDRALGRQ
Description: IDH1-R132H, IDH1-R132C, IDH2-R172K and IDH2-R140Q mutant enzymes catalyze the conversion of αKG to 2HG. 2HG is analyzed using in-line solid phase extraction and mass spectrometry. This analysis is carried out in a RapidFire® instrument coupled to a 6460 triple quadrupole mass spectrometer (G6460A Agilent).
IDH1 mutant (R132H and R132C) and IDH2 mutant (R140Q and R172K) proteins containing N-terminal His-tag are expressed in E. coli and purified using nickel affinity chromatography. The enzyme assays are carried out in V-bottom 96 well polypropylene plates containing 100 mM Tris-HCl buffer, 1 mM DTT, 0.005% TRITON™ X-100, 120 mM NaCl. For IDH1 R132H, α-ketoglutarate, NADPH and MnCl2 are included at final concentrations of 300 μM, 2.5 μM and 300 μM respectively. For IDH1 R132C, α-ketoglutarate, NADPH and MnCl2 are included at final concentrations of 100 μM, 10 μM and 100 μM respectively. For IDH2 R172K, α-ketoglutarate, NADPH and MnCl2 are included at final concentrations of 150 μM, 10 μM and 150 μM respectively. For IDH2 R140Q, α-ketoglutarate, NADPH and MnCl2 are included at final concentrations of 3000 μM, 10 μM and 100 μM respectively. Final pH=7.0. Test compound dissolved in DMSO stock is diluted in the reaction mix at a final DMSO concentration of 4%. Compounds are tested in dose-response format. The assay is started by addition of enzyme. Enzymes are used at the following final concentrations: IDH1 R132H, 2 nM; IDH1 R132C, 0.5 nM; IDH2 R172K, 1.2 nM; IDH2 R140Q, 1.2 nM. After 90 minutes the reaction is quenched by adding ACN (50:50) containing 3-hydroxy-1,5-pentanedioic-2,2,3,4,4-d5 acid (5d5-3HG) as an internal standard for mass spectrometry analysis and quantitation of reaction product. 2-Hydroxyglutarate (2HG) in quenched samples is separated using strong anionic exchange column chromatography (Phenomenex Strata-X-A SecurityGuard) and analyzed by mass spectrometry in a 6460 triple quadrupole mass spectrometer (G6460A Agilent). The 2HG signal detected is transformed into an analyte concentration using a calibration curve generated using known 2HG concentrations. […] IC50 values are obtained from the individual % inhibition values at different compound concentrations using a 4-parameter equation. These calculations are carried out using Activity Base (IDBS) or Screener (Genedata) data analysis programs.

Row | SMILES | IC50
1 | C=CC(=O)N1CCN(Cc2ccc([C@H](C)Nc3ncc4c(n3)N(C(C)C)C(=O)OC4)cc2)CC1 [Example 1, 1-Isopropyl-7-[[(1S)-1-[4-[(4-prop-2-enoylpiperazin-1-yl)methyl]phenyl]ethyl]amino]-4H-pyrimido[4,5-d][1,3]oxazin-2-one] | 41.8 µM
2 | C=CC(=O)N1CCN(Cc2ccc([C@H](C)Nc3ncc4c(n3)N(CC)C(=O)OC4)cc2)CC1 [Example 2, 1-Ethyl-7-[[(1S)-1-[4-[(4-prop-2-enoylpiperazin-1-yl)methyl]phenyl]ethyl]amino]-4H-pyrimido[4,5-d][1,3]oxazin-2-one] | 73.9 µM
3 | C=CC(=O)N1CCN(c2ccc([C@H](C)Nc3ncc4c(n3)N(C(C)C)C(=O)OC4)cc2)CC1 [Example 6, 1-Isopropyl-7-[[(1S)-1-[4-(4-prop-2-enoylpiperazin-1-yl)phenyl]ethyl]amino]-4H-pyrimido[4,5-d][1,3]oxazin-2-one] | > 100 µM
4 | C=CC(=O)N1CCC2(CC1)CN(Cc1ccc([C@H](C)Nc3ncc4c(n3)N(C(C)C)C(=O)OC4)cc1)C2 [Example 8, 1-Isopropyl-7-[[(1S)-1-[4-[(7-prop-2-enoyl-2,7-diazaspiro[3.5]nonan-2-yl)methyl]phenyl]ethyl]amino]-4H-pyrimido[4,5-d][1,3]oxazin-2-one] | > 100 µM
5 | C=CC(=O)N1CC(N(C)Cc2ccc([C@H](C)Nc3ncc4c(n3)N(CC)C(=O)OC4)cc2)C1 [Example 10, 1-Ethyl-7-[[(1S)-1-[4-[[methyl-(1-prop-2-enoylazetidin-3-yl)amino]methyl]-phenyl]ethyl]amino]-4H-pyrimido[4,5-d][1,3]oxazin-2-one] | > 100 µM
6 | C=CC(=O)N1CCN(Cc2ccc([C@H](C)Nc3ncc4c(n3)N([C@H](C)CO)C(=O)OC4)cc2)CC1 [Example 11, 1-[(1R)-2-Hydroxy-1-methyl-ethyl]-7-[[(1S)-1-[4-[(4-prop-2-enoylpiperazin-1-yl)methyl]phenyl]ethyl]amino]-4H-pyrimido[4,5-d][1,3]oxazin-2-one] | > 100 µM
7 | C=CC(=O)N1CCC(N(C)Cc2ccc([C@H](C)Nc3ncc4c(n3)N(CC)C(=O)OC4)cc2)CC1 [Example 12, 1-Ethyl-7-[[(1S)-1-[4-[[methyl-(1-prop-2-enoyl-4-piperidyl)amino]-methyl]phenyl]ethyl]amino]-4H-pyrimido[4,5-d][1,3]oxazin-2-one] | > 100 µM
8 | C=CC(=O)N1CC2(CN(Cc3ccc([C@H](C)Nc4ncc5c(n4)N(CC)C(=O)OC5)cc3)C2)C1 [Example 14, 1-Ethyl-7-[[(1S)-1-[4-[(2-prop-2-enoyl-2,6-diazaspiro[3.3]heptan-6-yl)methyl]phenyl]ethyl]amino]-4H-pyrimido[4,5-d][1,3]oxazin-2-one] | > 100 µM
9 | C=CC(=O)N1CC2(CN(Cc3ccc([C@H](C)Nc4ncc5c(n4)N(C(C)C)C(=O)OC5)cc3)C2)C1 [Example 15, 1-Isopropyl-7-[[(1S)-1-[4-[(2-prop-2-enoyl-2,6-diazaspiro[3.3]heptan-6-yl)methyl]phenyl]ethyl]amino]-4H-pyrimido[4,5-d][1,3]oxazin-2-one] | > 100 µM
10 | C=CC(=O)N1CCN(Cc2ccc([C@H](C)Nc3ncc4c(n3)N(C)C(=O)OC4)cc2)CC1 [Example 19, 1-Methyl-7-[[(1S)-1-[4-[(4-prop-2-enoylpiperazin-1-yl)methyl]phenyl]ethyl]amino]-4H-pyrimido[4,5-d][1,3]oxazin-2-one] | > 100 µM
11 | C=CC(=O)N1CCN(Cc2ccc([C@H](C)Nc3ncc4c(n3)N(CCF)C(=O)OC4)cc2)CC1 [Example 21, 1-(2-fluoroethyl)-7-[[(1S)-1-[4-[(4-prop-2-enoylpiperazin-1-yl)methyl]phenyl]ethyl]amino]-4H-pyrimido[4,5-d][1,3]oxazin-2-one] | > 100 µM

Next, values leading:

Row | IC50 | SMILES
12 | 59.5 µM | C=CC(=O)N1CCN(Cc2ccc([C@H](C)Nc3ncc4c(n3)N(CC(C)C)C(=O)OC4)cc2)CC1 [Example 3, 1-Isobutyl-7-[[(1S)-1-[4-[(4-prop-2-enoylpiperazin-1-yl)methyl]phenyl]ethyl]amino]-4H-pyrimido[4,5-d][1,3]oxazin-2-one]
13 | 37.7 µM | C=CC(=O)N1CC(OCc2ccc([C@H](C)Nc3ncc4c(n3)N(CC)C(=O)OC4)cc2)C1 [Example 4, 1-Ethyl-7-[[(1S)-1-[4-[(1-prop-2-enoylazetidin-3-yl)oxymethyl]phenyl]ethyl]amino]-4H-pyrimido[4,5-d][1,3]oxazin-2-one]
14 | > 100 µM | C=CC(=O)N1CC2(CN(Cc3ccc([C@H](C)Nc4ncc5c(n4)N(CC(C)C)C(=O)OC5)cc3)C2)C1 [Example 5, 1-Isobutyl-7-[[(1S)-1-[4-[(2-prop-2-enoyl-2,6-diazaspiro[3.3]heptan-6-yl)methyl]phenyl]ethyl]amino]-4H-pyrimido[4,5-d][1,3]oxazin-2-one]
15 | 10.9 µM | C=CC(=O)N1CC(CCc2ccc([C@H](C)Nc3ncc4c(n3)N(CC)C(=O)OC4)cc2)C1 [Example 7, 1-Ethyl-7-[[(1S)-1-[4-[2-(1-prop-2-enoylazetidin-3-yl)ethyl]phenyl]ethyl]amino]-4H-pyrimido[4,5-d][1,3]oxazin-2-one]
16 | 27 µM | C=CC(=O)N1CC(COc2ccc([C@H](C)Nc3ncc4c(n3)N(C(C)C)C(=O)OC4)cc2)C1 [Example 9, 1-Isopropyl-7-[[(1S)-1-[4-[(1-prop-2-enoylazetidin-3-yl)methoxy]-phenyl]ethyl]amino]-4H-pyrimido[4,5-d][1,3]oxazin-2-one]
17 | 93.6 µM | C=CC(=O)N1CC(OCc2ccc([C@H](C)Nc3ncc4c(n3)N(CC(C)C)C(=O)OC4)cc2)C1 [Example 13, 1-Isobutyl-7-[[(1S)-1-[4-[(1-prop-2-enoylazetidin-3-yl)oxymethyl]phenyl]ethyl]amino]-4H-pyrimido[4,5-d][1,3]oxazin-2-one]
18 | 49 µM | C=CC(=O)N1CCN(Cc2ccc([C@H](C)Nc3ncc4c(n3)N(CC)C(=O)OC4)cc2F)CC1 [Example 16, 1-Ethyl-7-[[(1S)-1-[3-fluoro-4-[(4-prop-2-enoylpiperazin-1-yl)methyl]phenyl]ethyl]amino]-4H-pyrimido[4,5-d][1,3]oxazin-2-one]
19 | 48.7 µM | C=CC(=O)N1CC(COc2ccc([C@H](C)Nc3ncc4c(n3)N(CC)C(=O)OC4)cc2)C1 [Example 17, 1-Ethyl-7-[[(1S)-1-[4-[(1-prop-2-enoylazetidin-3-yl)methoxy]phenyl]ethyl]amino]-4H-pyrimido[4,5-d][1,3]oxazin-2-one]
20 | 83.5 ± 17.4 µM | C=CC(=O)N1CCN(Cc2ccc([C@H](C)Nc3ncc4c(n3)N(CC(F)F)C(=O)OC4)cc2)CC1 [Example 20, 1-(2,2-difluoroethyl)-7-[[(1S)-1-[4-[(4-prop-2-enoylpiperazin-1-yl)methyl]phenyl]ethyl]amino]-4H-pyrimido[4,5-d][1,3]oxazin-2-one]
21 | 11.6 ± 2 µM | C=CC(=O)N1CC=C(COc2ccc([C@H](C)Nc3ncc4c(n3)N(CC)C(=O)OC4)cc2)C1 [Example 22, 1-ethyl-7-[[(1S)-1-[4-[(1-prop-2-enoyl-2,5-dihydropyrrol-3-yl)methoxy]phenyl]ethyl]amino]-4H-pyrimido[4,5-d][1,3]oxazin-2-one]
